Test results taken from patent US20160296529A1, “AMINOTRIAZOLOPYRIDINE FOR USE IN THE TREATMENT OF INFLAMMATION, AND PHARMACEUTICAL COMPOSITIONS THEREOF” (priority 2012, published 2016).
Several values for one entry are separate records, joined by “and”; a condition that tells them apart may be missing. Identical values can stand only once. Like-named read-outs stand apart in the source and are kept apart here.

Legend:
[1] = molecular target: T1, Recombinant human JAK3 catalytic domain (Homo sapiens, UniProt P52333); assay: JAK3 inhibition assay; assay type: biochemical
T1 construct: amino acids 795-1124; catalog number 08-046; purchased Carna Biosciences 08-046
Description: Recombinant human JAK3 catalytic domain (amino acids 795-1124; catalog number 08-046) was purchased from Carna Biosciences. 0.5 ng JAK3 protein was incubated with 2.5 μg polyGT substrate (Sigma catalog number P0275) in kinase reaction buffer (25 mM Tris pH 7.5, 0.5 mM EGTA, 10 mM MgCl2, 2.5 mM DTT, 0.5 mM Na3VO4, 5 mM b-glycerophosphate, 0.01% Triton X-100, 1 μM non-radioactive ATP, 0.25 μCi ^33P-gamma-ATP (Perkin Elmer, catalog number NEG602K001MC) final concentrations) with or without 5 μL containing test compound or vehicle (DMSO, 1% final concentration), in a total volume of 25 μL, in a polypropylene 96-well plate (Greiner, V-bottom). After 45 min at 30° C., reactions were stopped by adding 25 μL/well of 150 mM phosphoric acid. […] 40 μL/well of Microscint-20 was added, the top of the plates was sealed and readout was performed using the Topcount (Perkin Elmer). Kinase activity was calculated by subtracting counts per min (cpm) obtained in the presence of a positive control inhibitor (10 μM staurosporine) from cpm obtained in the presence of vehicle. The ability of a test compound to inhibit this activity was determined as:
Percentage inhibition=((cpm determined for sample with test compound present−cpm determined for sample with positive control inhibitor) divided by (cpm determined in the presence of vehicle−cpm determined for sample with positive control inhibitor))*100. […]

[2] = system: GM-CSF-induced STAT5 phosphorylation (JAK2-dependent pathway); assay: Human whole blood assay (hWBA), GM-CSF stimulation, phospho-STAT5 on CD33+ cells; assay type: cell-based; conditions: 7 different donors
Description: A flow cytometry analysis was performed to establish JAK1 over JAK2 compound selectivity ex vivo using human whole blood. Therefore, blood is taken from human volunteers who gave informed consent. Blood is then equilibrated for 30 min at 37° C. under gentle rocking, then aliquoted in Eppendorf tubes. Compound is added at different concentrations and incubated at 37° C. for 30 min under gentle rocking and subsequently stimulated for 20 min at 37° C. under gentle rocking with interleukin 6 (IL-6) for JAK1-dependent pathway stimulation or GM-CSF for JAK2-dependent pathway stimulation. Phospho-STAT1 and phospho-STAT5 are then evaluated using FACS analysis. […]
Cells were then washed once with 1×PBS and analyzed on a FACSCanto II flow cytometer (BD Biosciences).
50,000 total events were counted and Phospho-STAT5 positive cells were measured after gating on CD33^+ cells. Data were analyzed using the FACSDiva software and correspond to the percentage of inhibition of GM-CSF stimulation calculated from the percentage of positive cells for phosphor-STAT5 on CD33^+ cells.
A flow cytometry analysis was performed to establish JAK1 over JAK2 compound selectivity ex vivo using human whole blood. […] Phospho-STAT1 (for IL-6- and IFNα-stimulated cells) and phospho-STAT5 (for IL-2- and GM-CSF-stimulated cells) levels are then evaluated using FACS analysis. […]

T1 sequence (P52333 795-1124): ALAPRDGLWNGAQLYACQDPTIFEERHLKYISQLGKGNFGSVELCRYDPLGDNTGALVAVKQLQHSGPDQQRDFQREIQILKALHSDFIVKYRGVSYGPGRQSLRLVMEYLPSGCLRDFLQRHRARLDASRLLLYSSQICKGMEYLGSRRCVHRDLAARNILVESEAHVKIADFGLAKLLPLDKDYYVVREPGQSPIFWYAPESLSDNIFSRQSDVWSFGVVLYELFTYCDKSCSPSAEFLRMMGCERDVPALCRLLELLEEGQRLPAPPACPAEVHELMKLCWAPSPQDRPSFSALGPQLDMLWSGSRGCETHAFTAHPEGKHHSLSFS

Q: Which results are given for `Nc1nc2cccc(-c3ccc(CN4CCS(=O)(=O)CC4)cc3)n2n1` [Formula I, 5-[4-(1,1-Dioxothiomorpholin-4-ylmethyl)-phenyl]-[1,2,4]triazolo[1,5-a]pyridin-2-ylamine]?
A: IC50 ([1]; average, read-out: IC50 (average)): > 3.61 µM; IC50 ([1]; individual determinations, read-out: IC50): 2.5 µM and 3.2 µM and 3.37 µM and > 4 µM (5×) and > 3.33 µM (2×) and 3.94 µM; IC50 [2]: > 100 µM
